Source: publication PMC12592319, “Predicting Food Effect On Oral Drug Absorption For Solubility-Epithelial Membrane Permeation-Limited Cases With Bile Micelle Solubilization” (Pharmaceutical Research, 2025)
In brackets after ≈: the same amount, converted by molar mass. Read-outs that look alike come from different tables or passages of the source.

Tests used:
[1] = cited from earlier work
[2] = μFLUX dissolution-permeation flux experiment; conditions: for fraction unbound: pH 6.5, fu; for CD,final: measured after filtration, 1/10 of clinical dose, mean ± S.D., N = 3; for Pep,u,μFLUX: Peff,μFLUX/fu; for JμFLUX: average of 90 to 120 min (pranlukast 210 to 240 min); for Peff,μFLUX: calculated based on CD,final
[3] = FaRLS diagnosis by Fa equation and Peff equation (Table S3, dose number); conditions: clinical dose; for Dose number, Fasted: Sdissolv in FaSSIF; for Dose number, Fed: Sdissolv in FeSSIF
[4] = Octanol-water partition/distribution coefficient (logPoct, logDoct); assay type: physicochemical; conditions: calculated from logPoct and pKa using the Henderson-Hasselbalch equation
Excerpt: Table II Physicochemical Properties and Caco-2 Permeability of Model Drugs | column: logDoct,pH 6.5^c

[5] = Equilibrium solubility measurement (shake-flask) in blank FaSSIF, FaSSIF, FeSSIF; assay type: physicochemical; conditions: for solubility at 72 h: thermodynamic from solid, pH 6.5, 37°C, mean ± S.D., N = 3
Procedure: A shake-flask method was used for equilibrium solubility measurement. Each drug (10 mg) was added to the 15 mL test tube. Blank FaSSIF (28.7 mM phosphate buffer, pH 6.5 adjusted by NaOH), FaSSIF (3 mM TC, 0.75 mM EL in blank FaSSIF), or FeSSIF (15 mM TC, 3.75 mM EL in blank FaSSIF) was added. The test tube was placed horizontally in a reciprocal shaker. After shaking for 72 h at 37°C (at 90 rpm, motion width: 2.5 cm), the sample was filtered (hydrophilic PVDF, φ = 4.0 mm, pore size: 0.22 µm, Merck). The first few droplets were discarded to avoid filter adsorption. The concentration of each drug was measured by UV absorbance. […] After measuring the final pH (9615S-10D Standard ToupH electrode (HORIBA Advanced Techno Co., Ltd., Kyoto, Japan)), the residual particles were collected by vacuum filtration and analyzed by powder X-ray diffraction (PXRD) (Supplemental Information Figure S1).

[6] = test system: Caco-2; design: method as in PMID 9795088, PMID 10767597, PMID 15032311; conditions: cited from earlier work
[7] = clinical AUC ratio fed/fasted, humans; cited from earlier work
[8] = design: method as in PMID 20307655, PMID 19465123, PMID 17828749, PMID 23994640; conditions: pH 6.5; cited from earlier work
[9] = pKa measurement (SiriusT3, UV-metric/pH-metric titration); assay type: physicochemical; conditions: ionic strength 0.168 mol/L, 37°C
Procedure: The pKa measurements were performed using a SiriusT3 automatic titrator, with a spectrometric (UV-metric) or titration (pH-metric) method. The UV-metric method used a fiber optic dip probe, a deuterium lamp UV light source, and a photodiode array detector to capture the absorption spectra of a sample solution over the course of three titrations, across the pH range 2.0–12.0. […] Titrations were carried out under a controlled temperature of 37 ± 0.2°C.
SiriusT3 software v2.0 was used to apply principal component analysis to the spectral data to resolve the molar absorptivity spectra of each sample species and determine the psKa values of the compounds in the co-solvent. The pKa values under aqueous conditions were calculated from the co-solvent data using the Yasuda-Shedlovsky extrapolation method.
Additional potentiometric titrations were performed for each drug, which confirmed that no additional non-UV active pKas were present within the titration pH range.

[10] = bile micelles in FaSSIF, FaSSIF, calculated by Eq. (9) (Sdissolv,u/Sdissolv)
[11] = bile micelles in FeSSIF, FeSSIF, calculated by Eq. (9) (Sdissolv,u/Sdissolv)
[12] = FeSSIF/FaSSIF, μFLUX dose 1/10 of the clinical dose

For `C#C[C@]1(O)CC[C@H]2[C@@H]3CCC4=Cc5oncc5C[C@]4(C)[C@H]3CC[C@@]21C` [Danazol], which logPoct [1] is on record?
Its logPoct is 4.5.

And the fraction unbound [2, 10]?
The fraction unbound was 0.011.

What about the fraction unbound [2, 11] of the same compound?
Its fraction unbound is 0.0043.

And the “Dose number, Fasted” value [3]?
The value was 43.

And the “Dose number, Fed” value [3]?
The value was 14.

What about the “logDoct,pH 6.5” value [4] of the same compound?
The value was 4.5.

Which “Bound to bile micelles” value ([2]; FeSSIF) does the source give for `O=C(Nc1cccc2c(=O)cc(-c3nnn[nH]3)oc12)c1ccc(OCCCCc2ccccc2)cc1` [Pranlukast] here?
Its value is 99.6%.

And the “Ratio (fed/fasted) CD,final” value [2, 12]?
The value was 20.

And the “Ratio (fed/fasted) JμFLUX” value [2, 12]?
The value was 2.4.

What about the fu ([2]; FeSSIF, calculated by Eq. (9) (Sdissolv,u/Sdissolv)) of the same compound?
The fu was 0.0041.

And the fraction unbound [2, 10]?
The fraction unbound was 0.038.

And the fraction unbound [2, 11]?
Its fraction unbound is 0.004.

What about the “CD,final” value ([2]; donor FaSSIF pH 6.5) of the same compound?
The value was 56 ± 1 µg/mL.

And the “Pep,u,μFLUX” value ([2]; donor FaSSIF)?
Its value is 10 ± 2 10^–5 cm/s.

And the JμFLUX ([2]; donor FaSSIF)?
The JμFLUX was 0.20 ± 0.05 10–^3 μg/cm^2/s.

What about the “Peff,μFLUX” value ([2]; donor FaSSIF) of the same compound?
The value was 0.37 ± 0.09 10^–5 cm/s.

And the “CD,final” value ([2]; donor FeSSIF pH 6.5)?
The value was 1100 ± 0^ h μg/mL.

And the “Pep,u,μFLUX” value ([2]; donor FeSSIF)?
Its value is 10 ± 4 10^–5 cm/s.

What about the JμFLUX ([2]; donor FeSSIF) of the same compound?
Its JμFLUX is 0.47 ± 0.16 10–^3 μg/cm^2/s.

What about the “Peff,μFLUX” value ([2]; donor FeSSIF) of the same compound?
Its value is 0.043 ± 0.015 10^–5 cm/s.

And the “Ratio (fed/fasted) Sdissolv” value ([5]; FeSSIF/FaSSIF, corresponds to Fafed/Fafasted predicted by Eq. (18))?
The value was 9.1.

And the “Dose number, Fasted” value [3]?
The value was 20.

What about the “Dose number, Fed” value [3] of the same compound?
The value was 2.

And the “Caco-2 Papp” value [6]?
Its value is 0.08 [54] 10^–6 cm/s.

What about the “Ratio (fed/fasted) AUCr” value [7] of the same compound?
The value was 1.3.

What about the “Solubility, Blank FaSSIF” value [8] of the same compound?
Its value is 3 µg/mL (≈ 6.23 µM).

What about the “Solubility, FaSSIF” value [8] of the same compound?
The value was 88 µg/mL (≈ 183 µM).

And the “Solubility, FeSSIF” value [8]?
The value was 800 µg/mL (≈ 1660 µM).

What does the source list for `CO[C@H]1/C=C/O[C@@]2(C)Oc3c(C)c(O)c4c(O)c(c5c(nc6cc(C)ccn65)c4c3C2=O)NC(=O)/C(C)=C\C=C\[C@H](C)[C@H](O)[C@@H](C)[C@@H](O)[C@@H](C)[C@H](OC(C)=O)[C@@H]1C` [Rifaximin]?
pKa ([9]; acidic pKa, read-out: pKa (A)): < 2; pKa ([9]; basic pKa, read-out: pKa (B)): 8.29; solubility at 72 h ([5]; FaSSIF, read-out: Solubility, FaSSIF): 3.4 µg/mL (≈ 4.33 µM); solubility at 72 h ([5]; FeSSIF, read-out: Solubility, FeSSIF): 12 µg/mL (≈ 15.3 µM); solubility at 72 h ([5]; blank FaSSIF, read-out: Solubility, Blank FaSSIF): 1.8 µg/mL (≈ 2.29 µM); logDoct,pH 6.5 [4]: 2.6; Caco-2 Papp [6]: 1 [55] 10^–6 cm/s

With `COc1cc(F)c(C(C)C)cc1-c1ccc(C(F)(F)F)cc1CN1C(=O)O[C@H](c2cc(C(F)(F)F)cc(C(F)(F)F)c2)[C@@H]1C` [anacetrapib] as the compound, how does the logPoct [1] read?
Its logPoct is > 5.

With `Cc1cc(C#N)cc(C)c1Oc1nc(Nc2ccc(C#N)cc2)nc(N)c1Br` [etravirine] as the compound, how does the logPoct [1] read?
Its logPoct is > 5.

For `Cc1cn(-c2cc(NC(=O)c3ccc(C)c(Nc4nccc(-c5cccnc5)n4)c3)cc(C(F)(F)F)c2)cn1.Cl` [nilotinib HCl], which logPoct [1] is on record?
Its logPoct is > 5.

With `CC1(C)CCC(CN2CCN(c3ccc(C(=O)NS(=O)(=O)c4ccc(NCC5CCOCC5)c([N+](=O)[O-])c4)c(Oc4cnc5[nH]ccc5c4)c3)CC2)=C(c2ccc(Cl)cc2)C1` [venetoclax] as the compound, how does the logPoct [1] read?
The logPoct was > 5.
